Assay results: PubChem BioAssay AID248 (DTP/NCI, 2004)
“And” between values parts separate entries of the source, which are not always exact repeats. Identical values can stand only once. Inconclusive results and toxic doses are left out.

Test system: L1210 leukemia ip in BDF1 mice, survival T/C
Test: NCI In Vivo Anticancer Drug Screen. Data for tumor model L1210 Leukemia (intraperitoneal) in B6D2F1 (BDF1) mice
Conditions: endpoint: mean survival time, higher = longer survival
How it was run: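 Ratio derived from survival: compound-dosed mice over vehicle-dosed mice, all bearing a transplantable tumor.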

[1] = dose: 100.0 mg/kg/injection, schedule: Q04DX003 (ip), vehicle: saline with Tween-80
[2] = dose: 200.0 mg/kg/injection, schedule: Q04DX003 (ip), vehicle: saline with Tween-80
[3] = dose: 400.0 mg/kg/injection, schedule: Q04DX003 (ip), vehicle: saline with Tween-80
[4] = dose: 100.0 mg/kg/injection, schedule: Q01DX001 (ip), vehicle: saline
[5] = dose: 200.0 mg/kg/injection, schedule: Q01DX001 (ip), vehicle: saline
[6] = dose: 100.0 mg/kg/injection, schedule: Q01DX009 (ip), vehicle: saline
[7] = dose: 200.0 mg/kg/injection, schedule: Q01DX009 (ip), vehicle: saline
[8] = dose: 50.0 mg/kg/injection, schedule: Q01DX001 (ip), vehicle: saline
[9] = dose: 100.0 mg/kg/injection, schedule: Q01DX009 (ip), vehicle: saline with Tween-80
[10] = dose: 200.0 mg/kg/injection, schedule: Q01DX009 (ip), vehicle: saline with Tween-80
[11] = dose: 400.0 mg/kg/injection, schedule: Q01DX009 (ip), vehicle: saline with Tween-80
[12] = dose: 50.0 mg/kg/injection, schedule: Q04DX002 (ip), vehicle: saline with Tween-80
[13] = dose: 100.0 mg/kg/injection, schedule: Q04DX003 (ip), vehicle: Klucel (hydroxypropylcellulose) (HPC)
[14] = dose: 200.0 mg/kg/injection, schedule: Q04DX003 (ip), vehicle: Klucel (hydroxypropylcellulose) (HPC)
[15] = dose: 400.0 mg/kg/injection, schedule: Q04DX003 (ip), vehicle: Klucel (hydroxypropylcellulose) (HPC)
[16] = dose: 100.0 mg/kg/injection, schedule: Q01DX001 (ip), vehicle: saline with Tween-80
[17] = dose: 200.0 mg/kg/injection, schedule: Q01DX001 (ip), vehicle: saline with Tween-80
[18] = dose: 400.0 mg/kg/injection, schedule: Q01DX001 (ip), vehicle: saline with Tween-80

For `CC(C)C(=Nc1ccc(Cl)c(Cl)c1)N(C)C`, the T/C (dose: 44.0 mg/kg/injection, schedule: Q01DX Z (ip), vehicle: methylcellulose (MC)) was 95 % of control and the T/C (dose: 66.0 mg/kg/injection, schedule: Q01DX Z (ip), vehicle: methylcellulose (MC)) was 102 % of control.
`CC(=O)OCC1OC(Oc2c(C)cc([N+](=O)[O-])cc2[N+](=O)[O-])C(OC(C)=O)C(OC(C)=O)C1OC(C)=O` (configuration not stated) was tested, and the T/C [1] was 94 % of control, the T/C [2] was 100 % of control and the T/C [3] was 100 % of control.
For `CCCCN(C)C(=S)S[Te](SC(=S)N(C)CCCC)(SC(=S)N(C)CCCC)SC(=S)N(C)CCCC`, the T/C [4] was 95 % of control, the T/C [5] was 90 % of control and the T/C (dose: 400.0 mg/kg/injection, schedule: Q01DX001 (ip), vehicle: saline) was 93 % of control. The T/C (dose: 800.0 mg/kg/injection, schedule: Q01DX001 (ip), vehicle: saline) was 106 % of control and the T/C (dose: 1600.0 mg/kg/injection, schedule: Q01DX001 (ip), vehicle: saline) was 104 % of control.
With `CC1C(=O)OC2CC[N+]3(C)CC=C(COC(=O)C(C)(O)C1(C)O)C23` (configuration not stated) the T/C (dose: 50.0 mg/kg/injection, schedule: Q01DX009 (ip), vehicle: saline) was 92 % of control, the T/C [6] was 100 % of control and the T/C [7] was 92 % of control.
For `O=[N+]([O-])c1cccc([I+]c2ccccc2)c1`, the T/C [8] was 91 % of control, the T/C [4] was 95 % of control and the T/C [5] was 101 % of control.
For `CC(=O)Nc1ccc(NC(=O)Nc2cccc(F)c2)cc1`, the T/C [9] was 92 % of control, the T/C [10] was 89 % of control and the T/C [11] was 92 % of control.
In the case of `CCCCCCCCCCCCOP(=S)(S)OCCCCCCCCCCCC.[Cd]`, the T/C (dose: 1.56 mg/kg/injection, schedule: Q01DX009 (ip), vehicle: saline with Tween-80) was 102 % of control, the T/C (dose: 3.13 mg/kg/injection, schedule: Q01DX009 (ip), vehicle: saline with Tween-80) was 97 % of control and the T/C (dose: 6.25 mg/kg/injection, schedule: Q01DX009 (ip), vehicle: saline with Tween-80) was 96 % of control. The T/C [12] was 94 % of control and the T/C (dose: 100.0 mg/kg/injection, schedule: Q04DX002 (ip), vehicle: saline with Tween-80) was 86 % of control and 91 % of control.
In the case of `CCOC(=O)c1cccnc1N(C(=O)c1ccccc1)C(=O)c1ccccc1`, the T/C (dose: 100.0 mg/kg/injection, schedule: Q04DX002 (ip), vehicle: Klucel (hydroxypropylcellulose) (HPC)) was 95 % of control, the T/C (dose: 200.0 mg/kg/injection, schedule: Q04DX002 (ip), vehicle: Klucel (hydroxypropylcellulose) (HPC)) was 95 % of control and the T/C (dose: 400.0 mg/kg/injection, schedule: Q04DX002 (ip), vehicle: Klucel (hydroxypropylcellulose) (HPC)) was 89 % of control.
With `O=[N+]([O-])c1ccccc1CN1c2ccccc2N=C2c3ccccc3CC21` (configuration not stated) the T/C [13] was 88 % of control, the T/C [14] was 91 % of control and the T/C [15] was 100 % of control.
With `O=[N+]([O-])OCc1c(Cl)nc(Cl)c(Cl)c1Cl` the T/C (dose: 20.0 mg/kg/injection, schedule: Q01DX009 (ip), vehicle: Klucel (hydroxypropylcellulose) (HPC)) was 103 % of control, the T/C (dose: 40.0 mg/kg/injection, schedule: Q01DX009 (ip), vehicle: Klucel (hydroxypropylcellulose) (HPC)) was 92 % of control and the T/C [13] was 92 % of control. The T/C [14] was 100 % of control.
In the case of `C=C(C)COC(=O)Nc1cccc(OC(=O)NC)c1`, the T/C [16] was 97 % of control, the T/C [17] was 97 % of control and the T/C [18] was 94 % of control.
`COC1OC2COC(c3ccccc3)OC2C(O)C1OS(=O)(=O)c1ccc(C)cc1` (configuration not stated) was tested, and the T/C [1] was 87 % of control and the T/C [2] was 87 % of control.
`CCOC(=O)c1cn(C2OC(COC(=O)c3ccccc3)C(OC(=O)c3ccccc3)C2OC(=O)c2ccccc2)c(=O)nc1Nc1ccccc1Cl` (configuration not stated) was tested, and the T/C (dose: 25.0 mg/kg/injection, schedule: Q01DX005 (ip), vehicle: saline) was 104 % of control, the T/C (dose: 50.0 mg/kg/injection, schedule: Q01DX005 (ip), vehicle: saline) was 105 % of control and the T/C (dose: 75.0 mg/kg/injection, schedule: Q01DX005 (ip), vehicle: saline) was 105 % of control. For the same compound, the T/C (dose: 100.0 mg/kg/injection, schedule: Q01DX005 (ip), vehicle: saline) was 123 % of control and the T/C (dose: 200.0 mg/kg/injection, schedule: Q01DX005 (ip), vehicle: saline) was 92 % of control.
`O=C(O)C(Sc1ccccc1)c1ccccc1` (configuration not stated) was tested, and the T/C (dose: 100.0 mg/kg/injection, schedule: Q04DX002 (ip), vehicle: gum acacia) was 100 % of control, the T/C (dose: 200.0 mg/kg/injection, schedule: Q04DX002 (ip), vehicle: gum acacia) was 100 % of control and the T/C (dose: 400.0 mg/kg/injection, schedule: Q04DX002 (ip), vehicle: gum acacia) was 104 % of control.
For `CCNCC#CCNCC`, the T/C [6] was 96 % of control, the T/C (dose: 100.0 mg/kg/injection, schedule: Q04DX003 (ip), vehicle: saline) was 96 % of control and the T/C [7] was 107 % of control. For the same compound, the T/C (dose: 200.0 mg/kg/injection, schedule: Q04DX003 (ip), vehicle: saline) was 98 % of control and the T/C (dose: 400.0 mg/kg/injection, schedule: Q04DX003 (ip), vehicle: saline) was 99 % of control.
For `CCOC(=O)C(O)(CC)c1cc[n+](Cc2cc3ccccc3nc2Cl)cc1C` (configuration not stated), the T/C [8] was 115 % of control and the T/C [4] was 94 % of control.
`Nc1ccc(N(S(=O)(=O)c2ccccc2)S(=O)(=O)c2ccccc2)nc1` was tested, and the T/C (dose: 100.0 mg/kg/injection, schedule: Q01DX009 (ip), vehicle: Klucel (hydroxypropylcellulose) (HPC)) was 95 % of control, the T/C [13] was 98 % of control and the T/C (dose: 200.0 mg/kg/injection, schedule: Q01DX009 (ip), vehicle: Klucel (hydroxypropylcellulose) (HPC)) was 100 % of control. For the same compound, the T/C [14] was 97 % of control, the T/C (dose: 400.0 mg/kg/injection, schedule: Q01DX009 (ip), vehicle: Klucel (hydroxypropylcellulose) (HPC)) was 106 % of control and the T/C [15] was 103 % of control.
With `Cc1ccccc1C(O)c1cnc(C)n1Cc1ccccc1` (configuration not stated) the T/C [12] was 105 % of control and 88 % of control, the T/C [16] was 102 % of control and the T/C [9] was 100 % of control and 87 % of control. The T/C [1] was 92 % of control, the T/C [17] was 90 % of control and the T/C [10] was 103 % of control. The T/C [2] was 92 % of control, the T/C [18] was 93 % of control and the T/C [11] was 102 % of control. For the same compound, the T/C [3] was 97 % of control.
`[N-]=[N+]=NC1=C(Cl)C(=O)c2ccccc2C1=O` was tested, and the T/C (dose: 6.25 mg/kg/injection, schedule: Q04DX002 (ip), vehicle: saline with Tween-80) was 101 % of control, the T/C (dose: 12.5 mg/kg/injection, schedule: Q04DX002 (ip), vehicle: saline with Tween-80) was 96 % of control and the T/C (dose: 25.0 mg/kg/injection, schedule: Q04DX002 (ip), vehicle: saline with Tween-80) was 96 % of control.
`CCOC(=O)c1ccc(N(CCC(=O)COC(C)=O)C(C)=O)cc1` was tested, and the T/C (dose: 100.0 mg/kg/injection, schedule: Q01DX001 (ip), vehicle: carboxymethylcellulose (CMC)) was 94 % of control, the T/C (dose: 200.0 mg/kg/injection, schedule: Q01DX001 (ip), vehicle: carboxymethylcellulose (CMC)) was 100 % of control and the T/C (dose: 400.0 mg/kg/injection, schedule: Q01DX001 (ip), vehicle: carboxymethylcellulose (CMC)) was 102 % of control.
For `CN(Cc1cnc2nc(NCNC(=O)C3=C(O)[C@@]4(O)C(=O)C5=C(O)c6c(O)cccc6[C@@](C)(O)[C@H]5C[C@H]4[C@H](N(C)C)C3=O)nc(N)c2n1)c1ccc(C(=O)NC(CCC(=O)O)C(=O)O)cc1` (some centres not stated), the T/C (dose: 1.5 mg/kg/injection, schedule: Q01DX015 (ip), vehicle: saline) was 213 % of control, the T/C (dose: 3.0 mg/kg/injection, schedule: Q01DX015 (ip), vehicle: saline) was 219 % of control and the T/C (dose: 6.0 mg/kg/injection, schedule: Q01DX015 (ip), vehicle: saline) was 163 % of control. For the same compound, the T/C (dose: 12.0 mg/kg/injection, schedule: Q01DX015 (ip), vehicle: saline) was 107 % of control and the T/C (dose: 24.0 mg/kg/injection, schedule: Q01DX015 (ip), vehicle: saline) was 87 % of control.
`c1cc[c]([Sn]([S]c2ncnc3c2nc[n]3[Sn]([c]2ccccc2)([c]2ccccc2)[c]2ccccc2)([c]2ccccc2)[c]2ccccc2)cc1.c1cc[c]([Sn]([S]c2ncnc3nc[nH]c23)([c]2ccccc2)[c]2ccccc2)cc1` was tested, and the T/C (dose: 5.0 mg/kg/injection, schedule: Q01DX001 (ip), vehicle: other) was 122 % of control, the T/C (dose: 10.0 mg/kg/injection, schedule: Q01DX001 (ip), vehicle: other) was 100 % of control and the T/C (dose: 20.0 mg/kg/injection, schedule: Q01DX001 (ip), vehicle: other) was 100 % of control.
With `CCOC(=O)CC(C(=O)OCC)C(C(=O)OCC)C(=O)OCC` (configuration not stated) the T/C (dose: 50.0 mg/kg/injection, schedule: Q01DX009 (ip), vehicle: saline with Tween-80) was 111 % of control, the T/C [9] was 101 % of control and the T/C [10] was 101 % of control.
